In patent US4332891A, “Process for the production of antibiotic Cephamycin C” (Otsuka Pharmaceutical Co., Ltd., priority 1979, dated 1982):
≈ marks a conversion by molar mass, not a printed value.

Experiments:
[1] = Solubility; format: physicochemical
[2] = tested on: Proteus vulgaris IID OX-19; assay: Antimicrobial spectrum (MIC); format: cell-based; conditions: IIDOX19
From the text: (§1) The antimicrobial spectra to various microorganisms of the Cephamycin C produced by the process of this invention are shown as minimum inhibitory concentrations (MIC) in Table 4.

[3] = tested on: Esherichia coli NIHJ; assay: Antimicrobial spectrum (MIC); format: cell-based
From the text: as §1

[4] = tested on: Salmonella typhi 0-901 NCTC 8393; assay: Antimicrobial spectrum (MIC); format: cell-based; conditions: Salmonella enterica
From the text: as §1

[5] = tested on: Sarcina lutea PCI 1001; assay: Antimicrobial spectrum (MIC); format: cell-based; conditions: Micrococcus luteus, PCI1001
From the text: as §1

[6] = tested on: Staphylococcus aureus Newman; assay: Antimicrobial spectrum (MIC); format: cell-based
From the text: as §1

[7] = tested on: Bacillus subtilis PCI 219; assay: Antimicrobial spectrum (MIC); format: cell-based; conditions: PCI219
From the text: as §1

[8] = tested on: Proteus mirabilis 1287; assay: Antimicrobial spectrum (MIC); format: cell-based
From the text: as §1

[9] = tested on: Staphylococcus aureus FDA 209P; assay: Antimicrobial spectrum (MIC); format: cell-based; conditions: FDA209P
From the text: as §1

For `COC1(NC(=O)CCCC(N)C(=O)O)C(=O)N2C(C(=O)O)=C(COC(N)=O)CS[C@@H]21` (some centres unmarked) [Cephamycin C, 7-(5-amino-5-carboxyvalerylamino)-3-carbamoyloxymethyl-7-methoxy-3-cephem-4-carboxylic acid], the Solubility ([1]; in dimethylsulfoxide) was “slightly soluble in dimethylsulfoxide”, the Solubility ([1]; in ethanol) was “sparingly soluble in ethanol” and the Solubility ([1]; in water) was “well soluble in water”. It also gave an MIC [2] of 7.8 µg/mL (≈ 17.5 µM), an MIC [3] of 15.6 µg/mL (≈ 34.9 µM) and an MIC [4] of 3.9 µg/mL (≈ 8.74 µM). The MIC [5] was 15.6 µg/mL (≈ 34.9 µM), the MIC [6] was 250 µg/mL (≈ 560 µM) and the MIC [7] was 15.6 µg/mL (≈ 34.9 µM). It also gave an MIC [8] of 7.8 µg/mL (≈ 17.5 µM) and an MIC [9] of 250 µg/mL (≈ 560 µM).
